Read-outs that look alike come from different tables or passages of the source.
Legend:
E. coli ATCC 11229 = system: E. coli ATCC 11229
Experimental: (§1) Escherichia coli ATCC 11229 (Culti-loops, Remel Europe, Dartford, Kent, UK) and Pseudomonas aeruginosa ATCC 15442 (Cuti-loops, Remel Europe, Dartford, Kent, UK) were selected as model Gram-negative organisms for the challenge testing of the antimicrobial coatings. Each bacterial strain was streaked for isolated colonies on Tryptic Soy Agar (TSA) plates (Difco, Becton Dickinson, Sparks, Md., U.S.A.) and incubated at 37° C. for 12 to 18 hours. Broth cultures were prepared by first picking 1-2 isolated colonies from TSA plates and inoculating 5 mL Tryptic Soy Broth (TSB; Difco, Becton Dickinson, Sparks, Md., U.S.A.) in a 16 mm test tube. This culture was grown in a shaking water bath at 150 RPM for 8 hours at 37° C. After the eight hours, 125 μL of this culture was added to 50 mL of TSB in a side-arm Klett flask and grown for approximately 8 hours in shaking water bath (150 RPM) at 37° C. The bacterial broths were grown to an A590 of 1.2-1.5, which correlated to approximately 10^9 CFU (colony forming units)/mL. 25 mL of this broth were transferred to a sterile 30 mL Oakridge tube and centrifuged at 12,000×g for 10 minutes at 4° C. (Sorval SS34 rotor) to pelletize the bacteria. The bacterial pellet was washed once and resuspended in 25 mL of phosphate buffer solution (PBS; BBL, FTA Hemaglutination Buffer, Becton Dickinson, Sparks, Md., U.S.A.). The suspension was diluted with PBS to achieve the target range of 10^5-10^6 CFU/mL and used to inoculate the slides containing antibacterial coatings.
The glass slides are then washed with acetone and water.
(§2) The 10% substitution on this weight basis corresponds to substitution of one tenth of the total surfactant weight or to 3% of the total composition weight.
Bacterial cultures as prepared and described in Example 12 are applied to the surfactant polymer coated slides as prepared and described in Example 26. All inoculations are performed in a laminar flow hood. Sterilized slides are placed into a sterile Petri dish. Then 0.5 mL of the prepared bacterial suspensions is pipetted directly onto the slide, which spreads across the surface of the coating but remains on top of the slide.
The surviving bacteria from the exposures described in Example 27 are determined as follows: At each time point, 25 mL of sterile PBS is pipetted into the Petri dish completely submerging the slide, and a sterile plastic inoculating loop is used to release any viable bacteria remaining on the surface of the coating. Samples are plated onto TSA plates, and incubated at 37° C. for at least 24 h. Plates containing between 30 and 300 isolated colonies are counted.

S. aureus [1] = type: cell-based, Staphylococcus aureus; conditions: laboratory acrylic clearcoat, 24 h contact time
Description: A laboratory experimental solvent based acrylic paint is formulated and then used to challenge S. aureus by adding various levels of the invention silver anionic surfactants as described in Example 33. A binder is made by solution polymerization of butyl acrylate (25% w/w), methylmethacrylate (73.5% w/w), and methacrylic acid (1.5% w/w) in amylacetate using thermal initiation. This solution polymer is then used to make a 60% solids clearcoat binder in xylene/methanol (5:1 by weight). The silver anionic surfactants are dissolved in this same xylene/methanol mixture prior to addition to the clearcoat.

P. aeruginosa ATCC 15442 = conditions: for CFU/mL of E. coli at 24 hours / CFU/mL of E. coli at 12 hours: exposed to P. aeruginosa, polyurethane, microscope slides
Experimental: as §1, §2
The second set of coatings was made on microscope slides and challenged with E. coli ATCC 11229 and P. aeruginosa ATCC 15442. In these coatings, the gradient levels of incorporated silver were: 0%, 0.02%, 0.05%, 0.1%, 0.2%, 0.5%, 1.0% and 2.0% of the 30% NaAOT control amount. […] These gradients were tested at three inoculation time points, 0 hours, 12 hours, and 24 hours, with the 0% silver and 0 hours slides as controls.
The bacterial cultures were prepared as described in Example 12. Once the slides were inoculated, those assigned to incubate for 12 hours or 24 hours were placed in a humidified chamber by placing the Petri dishes containing the slides on test tubes that had been taped to the bottom of a 9″×13″ Pyrex dish. These test tubes held the Petri dishes just above the bottom of the dish, into which about 500 mL of sterile water was added. The Pyrex dish was also sterilized via UV irradiation (at least 4 minutes of exposure) prior to each challenge to protect against contamination. The dish was then covered with plastic wrap and tin foil and incubated at room temperature (20° C. to 25° C.).
At each time point (0 hours, 12 hours, and 24 hours), 25 mL of sterile PBS was pipetted into the Petri dish completely submerging the glass slide coated with the antimicrobial polymer.

S. aureus [2] = conditions: 24 h contact time
Description: PU formulated at a TDI: PPG mole ratio of 1.5:1 are post treated with water.

[3] = 0.061% weight w/w Ag in coating (first column 0.113), polyurethane, microscope slides
[4] = 0.122% weight w/w Ag in coating (first column 0.226), polyurethane, microscope slides
[5] = 24 hour exposure, polyurethane coated lantern slides
[6] = […] weight w/w Ag in coating (first column 0.0574), polyurethane, microscope slides
[7] = 0.061% weight w/w Ag in coating (first column 0.113)
[8] = 0.122% weight w/w Ag in coating (first column 0.226)
[9] = […] weight w/w Ag in coating (first column 0.0574)

CCCCC(CC)COC(=O)CC(C(=O)OCC(CC)CCCC)S(=O)(=O)[O-].[Ag+] (stereo not shown) [AgAOT]
CFU/mL of E. coli at 12 hours (E. coli ATCC 11229; [3]): 0, 0, 0 CFU/mL | CFU/mL of E. coli at 24 hours (E. coli ATCC 11229; [3]): 0, 0, 0 CFU/mL | CFU/mL of E. coli at 12 hours (E. coli ATCC 11229; [4]): 0, 0, 0 CFU/mL | CFU/mL of E. coli at 24 hours (E. coli ATCC 11229; [4]): 0, 0, 0 CFU/mL | CFU/mL of E. coli at 24 hours (E. coli ATCC 11229; 0.5% substituted for sodium salt in coating ([…] weight silver), polyurethane coated lantern slides): 0; 0 CFU/mL | CFU/mL of E. coli at 24 hours (E. coli ATCC 11229; 1.0% substituted for sodium salt in coating (0.061% weight silver), polyurethane coated lantern slides): 0; 0 CFU/mL | CFU/mL of E. coli at 24 hours (E. coli ATCC 11229; 3.0% substituted for sodium salt in coating ([…] weight silver), polyurethane coated lantern slides): 0; 0 CFU/mL | CFU/mL of E. coli at 24 hours (E. coli ATCC 11229; 10.0% substituted for sodium salt in coating (0.61% weight silver), polyurethane coated lantern slides): 0; 0 CFU/mL | Overall silver level effective as bactericide (E. coli ATCC 11229; 12 hours of exposure): 0.06 % weight silver relative to coating weight | Ag+ level resulting in complete killing of the E. coli (E. coli ATCC 11229; [5]): ≥ 0.031 % Ag+ relative to coating weig | Level of substitution resulting in complete killing of the E. coli (E. coli ATCC 11229; [5]): ≥ 0.5 % weight relative to the 30% N | Overall silver level effective as bactericide (E. coli ATCC 11229; 24 hours of exposure): 0.006 % weight silver relative to coating weight | CFU/mL of E. coli at 24 hours (E. coli ATCC 11229; […] weight w/w Ag in coating (first column 0.0226), polyurethane, microscope slides): 0, 0, 0 CFU/mL | CFU/mL of E. coli at 12 hours (E. coli ATCC 11229; [6]): 0, 0, 0 CFU/mL | CFU/mL of E. coli at 24 hours (E. coli ATCC 11229; [6]): 0, 0, 0 CFU/mL | Silver level with partial growth (S. aureus [1]): this lowest level | Overall silver level effective as bactericide (P. aeruginosa ATCC 15442; 12 hours of exposure): 0.06 % weight silver relative to coating weight | Smallest level examined that appears effective at killing the P. aeruginosa (P. aeruginosa ATCC 15442; 24 h exposure): 0.0012 % weight Ag relative to overall coating weight | Overall silver level effective as bactericide (P. aeruginosa ATCC 15442; 24 hours of exposure): 0.006 % weight silver relative to coating weight | CFU/mL of E. coli at 24 hours (P. aeruginosa ATCC 15442; 0.0061% weight w/w Ag in coating (first column 0.0113)): 0, 0, 0 CFU/mL | CFU/mL of E. coli at 12 hours (P. aeruginosa ATCC 15442; [7]): 0, 0, 0 CFU/mL | CFU/mL of E. coli at 24 hours (P. aeruginosa ATCC 15442; [7]): 0, 0, 0 CFU/mL | CFU/mL of E. coli at 12 hours (P. aeruginosa ATCC 15442; [8]): 0, 0, 0 CFU/mL | CFU/mL of E. coli at 24 hours (P. aeruginosa ATCC 15442; [8]): 0, 0, 0 CFU/mL | CFU/mL of E. coli at 24 hours (P. aeruginosa ATCC 15442; […] weight w/w Ag in coating (first column 0.00230)): 0, 0, 0 CFU/mL | CFU/mL of E. coli at 12 hours (P. aeruginosa ATCC 15442; [9]): 0, 0, 0 CFU/mL | CFU/mL of E. coli at 24 hours (P. aeruginosa ATCC 15442; [9]): 0, 0, 0 CFU/mL | S. aureus growth on PU composition (S. aureus [2]; 0.01 weight % Ag in PU composition): + | S. aureus growth on PU composition (S. aureus [2]; 0.03 weight % Ag in PU composition): + | S. aureus growth on PU composition (S. aureus [2]; 0.10 weight % Ag in PU composition): + | S. aureus growth on PU composition (S. aureus [2]; 0.30 weight % Ag in PU composition): − | S. aureus growth on PU composition (S. aureus [2]; 1.0 weight % Ag in PU composition): − | S. aureus growth on PU composition (S. aureus [2]; 3.0 weight % Ag in PU composition): − | Silver level providing complete inhibition (S. aureus [2]; PU composition): 0.30 % w/w silver

— patent publication US20090060984A1, “ANIONIC SURFACTANTS LETHAL TO GRAM-POSITIVE BACTERIA” (priority 2007, published 2009)
